{"source": "patent US20090022720A1", "about": "“Conjugate of an antibody against CD4 and antifusogenic peptides” (priority 2007, published 2009)", "key": {"NL-BAL": {"test_system": "NL-BAL", "assay": "Antiviral activity assay in peripheral blood mononuclear cells (PBMC), p24 ELISA, NL-BAL", "format": "cell-based, HIV-1", "conditions": "Table 5, by weight; human PBMC, 6 days", "procedure": "Human PBMC are isolated from buffy-coats (obtained from the Stanford Blood Center) by a Ficoll-Paque (Amersham, Piscataway, N.J., USA) density gradient centrifugation according to manufacturer's protocol. Briefly, blood is transferred from the buffy coats in 50 ml conical tubes and diluted with sterile Dulbecco's phosphate buffered saline (Invitrogen/Gibco) to a final volume of 50 ml. Twenty-five ml of the diluted blood are transferred to two 50 ml conical tubes, carefully underlayerd with 12.5 ml of Ficoll-Paque Plus (Amersham Biosciences) and centrifuged at room temperature for 20 min. at 450×g without braking. The white cell layer is carefully transferred to a new 50 ml conical tube and washed twice with PBS. To remove remaining red blood cells, cells are incubated for 5 min. at room temperature with ACK lysis buffer (Biosource) and washed one more time with PBS. PBMC are counted and incubated at a concentration of 2-4×10^6 cells/ml in RPMI1640 containing 10% FCS (Invitrogen/Gibco), 1% penicillin/streptomycin, 2 mM L-glutamine, 1 mM sodium-pyruvate, and 2 μg/ml Phyto-hemagglutinin (Invitrogen) for 24 h at 37° C. […] Virus production is measured at the end of infection by using p24 ELISA (HIV-1 p24 ELISA #NEK050B, Perkin Elmer/NEN) using the sigmoid dose-response model with one binding site in Microsoft Excel Fit (version 3.0.5 Build 12; equation 205; Microsoft)."}, "NL-BAL (R5)": {"test_system": "NL-BAL (R5)", "assay": "Single-cycle antiviral activity assay (luciferase, JC53-BL cells), NL-BAL", "format": "cell-based, HIV", "conditions": "Table 3, by weight, pseudotyped virus, 3 day incubation", "procedure": "For the production of pseudotyped NL-Bal viruses, plasmid pNL4-3Δenv (HIV pNL4-3 genomic construct with a deletion within the env gene) and pcDNA3.1/NL-BAL env (pcDNA3.1 plasmid containing NL-Bal env gene (obtained from NIBSC Centralized Facility for AIDS Reagents)) were co-transfected into the HEK 293FT cell line (Invitrogen Corp.), cultured in Dulbecco's modified minimum medium (DMEM) containing 10% fetal calf serum (FCS), 100 U/mL Penicillin, 100 μg/mL Streptomycin, 2 mM L-glutamine and 0.5 mg/mL geniticin (all media from Invitrogen/Gibco). The supernatants containing pseudotyped viruses were harvested two days following transfection, and cellular debris was removed by filtration through a […] pore size PES (polyethersulfone) filter (Nalgene) and stored at −80° C. in aliquots. For normalization in assay performance, virus stock aliquots were used to infect JC53-BL (US NIH Aids Reagent Program) cells yielding approximately 1.5×10^5 RLU (relative light units) per well. […] The assay plates were read on a Luminometer (Luminoskan, Thermo Electron Corporation) after 10 minutes of incubation at room temperature. Percent inhibition of luciferase activity was calculated for each dose point after subtracting the background, and IC50 and IC90-values were determined by using XLfit curve fitting software for Excel (version 3.0.5 Build12; Microsoft)."}}, "data": [{"sequence": "NMTWMEWDREINQYTSLIHSLIEESQNQQEKNEQELL [afp-1]", "values": [{"measurement": "Antiviral activity NL-BAL IC90", "setting": "NL-BAL", "value": "—/57.6 ng/mL"}, {"measurement": "Antiviral activity NL-BAL (R5) IC50", "setting": "NL-BAL (R5)", "value": "19.6/— ng/mL"}]}]}
